In this data set the test system is C. elegans N2 Bristol strain. As to the kind of experiment: C. elegans fecundity assay. In kind it is in vivo, Caenorhabditis elegans. Particulars: estimated concentration threshold, refined threshold-exposure stage; 6–7 days.

For `Cn1c(C(=O)NCCCc2c[nH]c(N)n2)cc(Br)c1Br` [DHS, dihydrosventrin], the “ECT (C. elegans)” value was 470 to 490 µM.
